Counter-ions that a name gives are not always drawn. Square brackets hold non-standard residues; d marks the D form. Peptide text beside a SMILES is read from it.
Assay: solubility of the fatty acid salt in water
Format: physicochemical
Conditions: for solubility in water: 24°C
Protocol: 200 mg of D-Ser^1 -Lys^17,18 -β^1-18 -corticotropin-Lys^18 -amide hexaacetate hydrate are dissolved in 24 ml of ethanol and 1.6 ml of water, and thereafter a solution of 88 mg of lauric acid in 10 ml of ethanol is added. The mixture is evaporated to dryness, the residue is dried overnight in vacuo over sodium hydroxide and is then dissolved in 25 ml of tert. butanol and 5 ml of water whilst warming, the solution is filtered and the filtrate is lyophilized. The residue is again dried in vacuo over sodium hydroxide. 265 mg of lauric acid salt are obtained as a light powder. The solubility of the product in water at 24°C is less than 0.1% (acetic acid salt > 10%).

| Compound | solubility in water (in words) | other results |
| --- | --- | --- |
| CSCC[C@H](NC(=O)[C@H](CO)NC(=O)[C@H](Cc1ccc(O)cc1)NC(=O)[C@H](N)CO)C(=O)N[C@@H](CCC(=O)O)C(=O)N[C@@H](Cc1c[nH]cn1)C(=O)N[C@@H](Cc1ccccc1)C(=O)N[C@@H](CCCNC(=N)N)C(=O)N[C@@H](Cc1c[nH]c2ccccc12)C(=O)NCC(=O)N[C@@H](CCCCN)C(=O)N1CCC[C@H]1C(=O)N[C@H](C(=O)NCC(=O)N[C@@H](CCCCN)C(=O)N[C@@H](CCCCN)C(=O)N[C@@H](CCCCN)C(=O)N[C@@H](CCCCN)C(N)=O)C(C)C [Example 1, D-Ser^1 -Lys^17,18 -β^1-18-corticotropin-Lys^18-amide] | – | solubility in water: less than 0.1% |
| CSCC[C@H](NC(=O)CNC(=O)[C@H](Cc1ccc(O)cc1)NC(=O)[C@H](N)CO)C(=O)N[C@@H](CCC(=O)O)C(=O)N[C@@H](Cc1c[nH]cn1)C(=O)N[C@@H](Cc1ccccc1)C(=O)N[C@@H](CCCNC(=N)N)C(=O)N[C@@H](Cc1c[nH]c2ccccc12)C(=O)NCC(=O)N[C@@H](CCCCN)C(=O)N1CCC[C@H]1C(=O)N[C@H](C(=O)NCC(=O)N[C@@H](CCCCN)C(=O)N[C@@H](CCCCN)C(=O)N[C@@H](CCCCN)C(=O)N[C@@H](CCCCN)C(N)=O)C(C)C [Example 8, D-Ser^1 -Gly^3 -Lys^17,18 -β^1-18-corticotropin-Lys^18-amide] (H-[dS]YGMEHFRWGKPVGKKKK-NH2) | practically insoluble in water | – |
| CSCC[C@H](NC(=O)[C@H](CO)NC(=O)[C@H](Cc1ccc(O)cc1)NC(=O)[C@H](N)CO)C(=O)N[C@@H](CCC(=O)O)C(=O)N[C@@H](Cc1c[nH]cn1)C(=O)N[C@@H](Cc1ccccc1)C(=O)N[C@@H](CCCNC(=N)N)C(=O)N[C@@H](Cc1c[nH]c2ccccc12)C(=O)NCC(=O)N[C@@H](CCCCN)C(=O)N1CCC[C@H]1C(=O)N[C@H](C(=O)NCC(=O)N[C@@H](CCCCN)C(=O)N[C@@H](CCCCN)C(=O)N[C@@H](CCCCN)C(=O)N[C@@H](CCCCN)C(N)=O)C(C)C [acetic acid salt, D-Ser^1 -Lys^17,18 -β^1-18-corticotropin-Lys^18-amide hexaacetate hydrate, reference compound] | – | solubility in water (hydrate): > 10% |
| D-Ser^1 -Gly^3 -Lys^17,18 -corticotropin-Lys^18 -amide [Example 9] | cannot be dissolved in water | – |

Second part, led by results:

| solubility in water (in words) | Compound | other results |
| --- | --- | --- |
| water-insoluble | CSCC[C@H](NC(=O)[C@H](CO)NC(=O)[C@H](Cc1ccc(O)cc1)NC(=O)[C@H](N)CO)C(=O)N[C@@H](CCC(=O)O)C(=O)N[C@@H](Cc1c[nH]cn1)C(=O)N[C@@H](Cc1ccccc1)C(=O)N[C@@H](CCCNC(=N)N)C(=O)N[C@@H](Cc1c[nH]c2ccccc12)C(=O)NCC(=O)N[C@@H](CCCCN)C(=O)N1CCC[C@H]1C(=O)N[C@H](C(=O)NCC(=O)N[C@@H](CCCCN)C(=O)N[C@@H](CCCCN)C(=O)N[C@@H](CCCCN)C(=O)N[C@@H](CCCCN)C(N)=O)C(C)C [Example 4, D-Ser^1 -Lys^17,18 -β^1-18-corticotropin-Lys^18-amide] | – |
| sparingly soluble in water | CSCC[C@H](NC(=O)[C@H](CO)NC(=O)[C@H](Cc1ccc(O)cc1)NC(=O)[C@H](N)CO)C(=O)N[C@@H](CCC(=O)O)C(=O)N[C@@H](Cc1c[nH]cn1)C(=O)N[C@@H](Cc1ccccc1)C(=O)N[C@@H](CCCNC(=N)N)C(=O)N[C@@H](Cc1c[nH]c2ccccc12)C(=O)NCC(=O)N[C@@H](CCCCN)C(=O)N1CCC[C@H]1C(=O)N[C@H](C(=O)NCC(=O)N[C@@H](CCCCN)C(=O)N[C@@H](CCCCN)C(=O)N[C@@H](CCCCN)C(=O)N[C@@H](CCCCN)C(=O)N1CCC[C@H]1C(=O)O)C(C)C [Example 6, D-Ser^1 -Lys^17,18 -β^1-19-corticotropin] | – |

— patent publication US3954975A, “Salts of ACTH-peptides and processes for their manufacture” (Ciba-Geigy Corporation, priority 1972, dated 1976)
